Data reported in patent US9844595B2, “Composition comprising a complex of (+)-catechin and amino acid for the treatment and prevention of cancer” (VALORE, priority 2013, dated 2017).
Where two headings read alike, the source gives them in different places.

Key:
[1] = type: in vivo, Wistar rats; conditions: in a period of one hour following the injection
Source text: (§1) Each of the mixtures is then solubilized in water.

collagen of rat skin = assay: Total incorporation and incorporation into collagen of 3H-proline in the skin; type: in vivo, Wistar rats; conditions: 100 mg/kg by gavage, vs control subgroup
Method: To do this, a study was carried out in vivo on a batch of 24 female Wistar rats weighing from 95 to 115 g, divided into two groups C and D, each of 12 rats. For each group, the radioactive 3H-hydroxyproline, the specific activity of which is 13.6 Ci/10-3 mol, was administered to all the animals by intraperitoneal injection of 3H-proline at a dose, relative to the weight of the individuals, of 1 mCi/kg, which represents an activity in terms of radioactive 3H-proline of 100 μCi/individual.
6 rats of each group received a treatment based on monomeric (+)-catechin by gavage in a proportion of 100 mg/kg for 5 days before sacrifice. […] The group C received monomeric (+)-catechin hydrochlorolysinate, while the group D received monomeric (+)-catechin ascorbolysinate.
In table 8, the level of incorporation is measured by the number of disintegrations of the radioactive 3H-hydroxyproline per minute (dpm) per mg of dry weight. The higher this number, the higher the concentration of 3H-hydroxyproline.
In this comparative example, a group E of 12 Wistar rats weighing from 95 to 115 g, in which radioactive 3H-hydroxyproline, the specific activity of which is 13.6 Ci/10-3 mol, was administered to all the individuals by intraperitoneal injection of 3H-proline at a dose, relative to the weight of the individuals, of 1 mCi/kg, which represents an activity in terms of radioactive 3H-proline of 100 μCi/individual.
6 rats of each group received a treatment based on pure monomeric (+)-catechin by gavage in a proportion of 100 mg/kg for 5 days before sacrifice.

[2] = Bioavailability after oral administration in human beings (free monomeric (+)-catechin in plasma, LC-MS/MS)
Method: (§2) With regard to taking the blood samples from the rats and from the human beings, the blood was collected in tubes internally coated with EDTA and was then centrifuged at 3000 rpm (revolutions per minute) at ambient temperature for 45 min, and then for 15 min at a temperature of 4° C. The plasma was then collected and stored at −70° C. before analysis.
(§3) The analytical technique (LC-MS/MS for Liquid Chromatography coupled to tandem Mass Spectrometry) for measuring the active substance in the blood was based on the method described by Mata-Bilbao et al., published in 2007 in the Journal of Agricultural and Food Chemistry, volume 55, page 8857.
(§4) The free (+)-catechin was extracted from the plasma with a solution of phosphoric acid, EDTA and ascorbic acid and was then purified by SPE (solid phase extraction); in particular, it is an Oasis™ HLB extraction which is analyzed by LC-MS/MS. The quantification was carried out according to a standard calibration procedure with (+/−)-catechin-2,3,4-^13C3 as internal standard (SI).
This complex salt is administered to a group A of 5 healthy volunteers.
This ct parameter makes it possible to calculate, from the data of table 1, the bioavailability of the (+)-catechin expressed in ng h/ml.

Solubility in water = type: physicochemical
[3] = for Δct: vs CP
Method: The experimental results described below were obtained on the basis of a study carried out in healthy human beings and in healthy Wistar rats weighing approximately 250 grams.
An acclimation period was observed before beginning the experiments.
The rats received an administration per os of a volume of 5 ml of a solution of active product.
as §2, §3, §4
The procedure is identical with regard to the extraction and the quantification of free quercetin or ECGC in the blood.
With regard to the extraction and quantification of the total (+)-catechin, the procedure is the same as that applied to the free (+)-catechin, with the exception of the fact that an additional step prior to the purification by SPE is carried out.
as §1
Each of the mixtures is solubilized in water.

[4] = free (+)-catechin, 1 g pure monomeric (+)-catechin, group B
[5] = free monomeric (+)-catechin in plasma
[6] = free (+)-catechin, rats, oral, dose equivalent to 25 mg/kg (+)-catechin, 3 Wistar rats
[7] = free (+)-catechin, rats, per os, dose equivalent to 25 mg/kg (+)-catechin, 5 Wistar rats, pulverulent mixture solubilized in water
[8] = total (+)-catechin (free and conjugated), rats, oral, dose equivalent to 25 mg/kg, 3 Wistar rats

Which “content of free monomeric (+)-catechin eliminated from the blood” value [1] does the source give for Oc1cc(O)c2c(c1)O[C@H](c1ccc(O)c(O)c1)[C@@H](O)C2 [CP, (+)-catechin] here?
Its value is roughly 90%.

What about the “increase in the level of incorporation” value (collagen of rat skin) of the same compound?
The value was “+16%”.

What about the “c (max) related back to 0.92 g of pure (+)-catechin” value [2] of the same compound?
The value was 258 ng/mL.

And the “ct related back to 0.92 g of pure (+)-catechin” value ([2]; equivalent amount of 0.92 g pure (+)-catechin)?
The value was 832 ± 150 ng·h/mL.

And the “ct related back to 0.920 g of pure (+)-catechin” value ([2]; equivalent amount of 0.920 g pure (+)-catechin)?
Its value is 49 920 ng min/ml.

And the “T (max)” value [2, 4]?
The value was 1.20 h.

And the “c (max)” value [2, 4]?
Its value is 280 ng/mL.

What about the “ct (total concentration, area under the curve over six hours)” value ([2]; free (+)-catechin, 1 g pure monomeric (+)-catechin, group B, listed as pure (+)-catechin) of the same compound?
The value was 904 ± 163 ng·h/mL.

What about the “T (max)” value [2, 5] of the same compound?
Its value is 1.33 h.

And the “c (max) for 1 g of monomeric (+)-catechin ingested as it is” value [2, 5]?
Its value is 280 ng.

What about the “solubility in water compared with the complexed form” value (Solubility in water) of the same compound?
Its value is 400 times lower.

And the “T (max)” value [3, 6]?
Its value is 0.5 h.

What about the Δct [3, 6] of the same compound?
Its Δct is 0%.

And the “Δct (difference of ct to CP, related back to CP)” value ([3]; free (+)-catechin, rats, oral, dose equivalent to 100 mg/kg (+)-catechin)?
Its value is 0%.

And the “T (max)” value ([3]; free (+)-catechin, rats, oral, dose equivalent to 100 mg/kg (+)-catechin, 5 Wistar rats)?
Its value is 1 h.

What about the “T (max)” value [3, 7] of the same compound?
The value was 1 h.

And the “c (max)” value [3, 7]?
The value was 580 ng/mL.

What about the ct [3, 7] of the same compound?
Its ct is 91 935 ng min/ml.

And the Δct ([3]; free (+)-catechin, rats, per os, dose equivalent to 25 mg/kg, 5 Wistar rats)?
The Δct was 0%.

What about the “decrease of the peak content of free monomeric (+)-catechin in the blood” value ([3]; oral absorption, after two hours) of the same compound?
Its value is 50%.

What about the “T (max)” value [3, 8] of the same compound?
Its value is 0.5 h.

And the “c (max)” value [3, 8]?
The value was 2200 ng/mL.

What about the Δct ([3]; total (+)-catechin, rats, oral, dose equivalent to 25 mg/kg, 3 Wistar rats) of the same compound?
Its Δct is 0%.
